# Measured values as given in patent US7884215B2, “2-substituted benzimidazoles” (priority 2005, dated 2011).
# pEC50: −log10 of the molar value.
# Tested on: Respiratory Syncytial Virus
# Experiment: microbe, parasite or virus in culture
# Type: cell-based
# Conditions: human respiratory syncytial virus, 168 h; antiviral activity; protection against cytopathology caused by RSV in HeLa cells, MTT read-out seven days after infection
# Method: The percent protection against cytopathology caused by viruses (antiviral activity or EC50) achieved by tested compounds and their cytotoxicity (CC50) are both calculated from dose-response curves.
# Automated tetrazolium-based colorimetric assays were used for determination of EC50 and CC50 of test compounds. […] Subsequently, stock solutions (7.8× final test concentration) of compounds were added in 45 μl volumes to a series of triplicate wells so as to allow simultaneous evaluation of their effects on virus- and mock-infected cells. Five five-fold dilutions were made directly in the microtiter trays using a robot system. Untreated virus controls, and HeLa cell controls were included in each test. Approximately 100 TCID50 of Respiratory Syncytial Virus was added to two of the three rows in a volume of 50 μl. The same volume of medium was added to the third row to measure the cytotoxicity of the compounds at the same concentrations as those used to measure the antiviral activity. […] Finally, the absorbances were read in an eight-channel computer-controlled photometer (Multiskan MCC, Flow Laboratories) at two wavelengths (540 and 690 nm). The absorbance measured at 690 nm was automatically subtracted from the absorbance at 540 nm, so as to eliminate the effects of non-specific absorption.
smiles,measurement,value
Cc1ccc(CCCO)c(NCc2ccc3nc(C(N)=O)n(Cc4nc(C)ccc4O)c3c2)c1 [d-10],pEC50,6.20
